Source: patent US20060256599A1, “Database of electronically profiled cells and methods for generating and using same” (priority 2005, published 2006)

What was measured:
cells in culture = test: effect of chemotherapeutic agents on cellular conductance and cell number; assay type: cell-based; conditions: 100 ng in each ml of media, DMEM + 10% serum, FIG. 6
Procedure: FIG. 6 depicts the effect of chemotherapeutic agents on cellular conductance and cell number.
Cells were seeding at a density of 1.0E+5 in 2 ml of DMEM with 10% FBS. The cells were grown and cultured for 24 hours. On day 2 eight wells were counted in a Coulter type counter after harvesting by trypsinization for initial cell count. Additional wells containing cells were examined to confirm cell viability and health by phase microscopy. The media as then aspirated and wells were filled with DMEM+10% serum (control) or DMEM+10% serum containing various concentrations of chemotherapeutic agent (e.g. Methotrexate.). The dose was 100 ng in each ml of media.

[1] = system: rat primary neonatal explants; conditions: in vitro; from King et al., Genentech paper; cited from earlier work

Compound	cell number (cells in culture; Coulter type counter)	cell conductance (cells in culture)	metabolic activity (heart beats) increased [1] [%]
CN(Cc1cnc2nc(N)nc(N)c2n1)c1ccc(C(=O)N[C@@H](CCC(=O)O)C(=O)O)cc1 [Methotrexate]	decreased cell number	decrease in cell conductance	
CNC[C@H](O)c1cccc(O)c1 [PE, Phenylephrine]			84
leukemia inhibitory factor [LIF]			125
prostaglandin F2alpha [PGF]			54
